Results taken from patent publication US20100204224A1, “AZACYCLIC COMPOUNDS AS INHIBITORS OF SENSORY NEURONE SPECIFIC SODIUM CHANNELS” (priority 2005, published 2010).
Structures can show the parent of a compound that is named as a salt.

Target: T1, human Nav1.8 (hNav1.8) ion channel (Homo sapiens, UniProt Q9Y5Y9)
T1 construct: expressed in transfected cells
Assay: Inhibition of human Nav1.8 stably expressed in SH-SY-5Y cells (membrane potential dye fluorescence assay)
Assay type: cell-based
Conditions: SH-SY-5Y hNav1.8 cells; FLIPR membrane potential dye; 10 μM pyrethroid, 250 nM TTX; test concentration range 100 μM-0.05 μM; read-out: hNav1.8 IC50

T1 sequence (Q9Y5Y9 whole entry): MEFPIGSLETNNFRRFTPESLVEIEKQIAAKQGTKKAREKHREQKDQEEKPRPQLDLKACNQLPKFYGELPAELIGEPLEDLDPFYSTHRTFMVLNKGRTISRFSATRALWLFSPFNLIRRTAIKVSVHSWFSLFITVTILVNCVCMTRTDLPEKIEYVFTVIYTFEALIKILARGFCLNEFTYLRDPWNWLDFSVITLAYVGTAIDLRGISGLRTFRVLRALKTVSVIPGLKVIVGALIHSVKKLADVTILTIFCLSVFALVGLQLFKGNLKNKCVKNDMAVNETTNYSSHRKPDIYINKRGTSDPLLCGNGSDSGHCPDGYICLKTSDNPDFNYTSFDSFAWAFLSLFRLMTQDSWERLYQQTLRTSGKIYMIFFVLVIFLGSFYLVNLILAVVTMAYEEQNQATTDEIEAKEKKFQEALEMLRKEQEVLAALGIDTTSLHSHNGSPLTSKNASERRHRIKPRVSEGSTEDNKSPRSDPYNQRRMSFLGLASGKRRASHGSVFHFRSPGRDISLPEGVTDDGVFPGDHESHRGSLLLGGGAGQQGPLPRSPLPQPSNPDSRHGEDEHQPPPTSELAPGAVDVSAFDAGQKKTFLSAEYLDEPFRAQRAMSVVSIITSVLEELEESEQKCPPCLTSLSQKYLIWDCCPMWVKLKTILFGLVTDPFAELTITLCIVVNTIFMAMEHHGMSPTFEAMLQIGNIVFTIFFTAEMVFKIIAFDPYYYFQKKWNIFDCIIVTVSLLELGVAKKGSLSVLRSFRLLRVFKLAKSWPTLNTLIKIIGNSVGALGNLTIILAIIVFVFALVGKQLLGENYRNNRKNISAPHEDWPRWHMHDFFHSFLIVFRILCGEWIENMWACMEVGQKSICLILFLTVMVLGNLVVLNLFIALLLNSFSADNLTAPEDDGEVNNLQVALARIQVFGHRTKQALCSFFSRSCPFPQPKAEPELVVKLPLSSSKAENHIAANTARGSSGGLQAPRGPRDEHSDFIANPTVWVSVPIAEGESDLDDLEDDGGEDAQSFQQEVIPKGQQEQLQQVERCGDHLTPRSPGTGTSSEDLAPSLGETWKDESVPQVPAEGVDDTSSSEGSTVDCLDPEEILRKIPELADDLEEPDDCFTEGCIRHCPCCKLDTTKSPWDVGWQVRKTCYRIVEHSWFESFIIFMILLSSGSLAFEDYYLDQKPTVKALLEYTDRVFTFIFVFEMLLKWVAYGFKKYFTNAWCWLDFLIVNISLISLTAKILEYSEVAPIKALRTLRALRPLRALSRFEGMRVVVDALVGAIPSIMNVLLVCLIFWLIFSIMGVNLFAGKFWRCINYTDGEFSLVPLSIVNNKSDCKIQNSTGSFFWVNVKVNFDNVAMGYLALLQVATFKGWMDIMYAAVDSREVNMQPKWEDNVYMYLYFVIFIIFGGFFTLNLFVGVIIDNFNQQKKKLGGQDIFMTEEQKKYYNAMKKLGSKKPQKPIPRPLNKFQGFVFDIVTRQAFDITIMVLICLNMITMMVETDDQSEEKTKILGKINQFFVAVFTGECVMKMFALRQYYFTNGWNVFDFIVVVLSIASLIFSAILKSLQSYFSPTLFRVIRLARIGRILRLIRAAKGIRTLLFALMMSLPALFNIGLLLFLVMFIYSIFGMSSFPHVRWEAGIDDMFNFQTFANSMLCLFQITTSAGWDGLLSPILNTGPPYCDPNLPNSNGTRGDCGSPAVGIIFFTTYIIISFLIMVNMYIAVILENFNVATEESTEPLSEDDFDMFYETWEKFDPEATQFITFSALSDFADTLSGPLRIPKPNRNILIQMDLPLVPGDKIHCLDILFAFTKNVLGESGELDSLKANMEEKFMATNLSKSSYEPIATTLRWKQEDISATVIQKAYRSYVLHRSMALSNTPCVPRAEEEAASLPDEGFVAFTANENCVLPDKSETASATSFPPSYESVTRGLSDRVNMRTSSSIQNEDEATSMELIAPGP

**Q.** How did the IC50 turn out when `CC(Cc1ccccc1F)N1CC2CC1CN2C(=O)Nc1ccc(C(F)(F)F)cc1` (stereo not drawn) [Example 79, 5-[2-(2-Fluoro-phenyl)-1-methyl-ethyl]-2,5-diaza-bicyclo[2.2.1]heptane-2-carboxylic acid (4-trifluoromethyl-phenyl)-amide] was run?
**A.** 780 nM

**Q.** Which IC50 does the source give for `CC(Cc1ccc(F)cc1)N1CC2CC1CN2C(=O)Nc1ccc(C(F)(F)F)cc1` (stereo not drawn) [Example 80, 5-[2-(4-Fluoro-phenyl)-1-methyl-ethyl]-2,5-diaza-bicyclo[2.2.1]heptane-2-carboxylic acid (4-trifluoromethyl-phenyl)-amide] here?
**A.** 490 nM

**Q.** Which IC50 does the source give for `CC(C(C#N)c1ccccc1)N1CC2CC1CN2C(=O)Nc1ccc(C(F)(F)F)cc1` (stereo not drawn) [Example 81, 5-(2-Cyano-1-methyl-2-phenyl-ethyl)-2,5-diaza-bicyclo[2.2.1]heptane-2-carboxylic acid (4-trifluoromethyl-phenyl)-amide] here?
**A.** 26200 nM

**Q.** How did the IC50 turn out when `CC(Cc1ccccc1Cl)N1CC2CC1CN2C(=O)Nc1ccc(C(F)(F)F)cc1` (stereo not drawn) [Example 82, 5-[2-(2-Chloro-phenyl)-1-methyl-ethyl]-2,5-diaza-bicyclo[2.2.1]heptane-2-carboxylic acid (4-trifluoromethyl-phenyl)-amide] was run?
**A.** 440 nM

**Q.** For `CC(Cc1ccc(Cl)cc1)N1CC2CC1CN2C(=O)Nc1ccc(C(F)(F)F)cc1` (stereo not drawn) [Example 83, 5-[2-(4-Chloro-phenyl)-1-methyl-ethyl]-2,5-diaza-bicyclo[2.2.1]heptane-2-carboxylic acid (4-trifluoromethyl-phenyl)-amide], which IC50 is on record?
**A.** 680 nM

**Q.** With `CC(Cc1ccc(Cl)cc1Cl)N1CC2CC1CN2C(=O)Nc1ccc(C(F)(F)F)cc1` (stereo not drawn) [Example 84, 5-[2-(2,4-Dichloro-phenyl)-1-methyl-ethyl]-2,5-diaza-bicyclo[2.2.1]heptane-2-carboxylic acid (4-trifluoromethyl-phenyl)-amide] as the compound, how does the IC50 read?
**A.** 1060 nM

**Q.** With `CC(Cc1c(F)cccc1Cl)N1CC2CC1CN2C(=O)Nc1ccc(C(F)(F)F)cc1` (stereo not drawn) [Example 85, 5-[2-(2-Chloro-6-fluoro-phenyl)-1-methyl-ethyl]-2,5-diaza-bicyclo[2.2.1]heptane-2-carboxylic acid (4-trifluoromethyl-phenyl)-amide] as the compound, how does the IC50 read?
**A.** 630 nM

**Q.** Which IC50 does the source give for `COc1ccccc1CC(C)N1CC2CC1CN2C(=O)Nc1ccc(C(F)(F)F)cc1` (stereo not drawn) [Example 86, 5-[2-(2-Methoxy-phenyl)-1-methyl-ethyl]-2,5-diaza-bicyclo[2.2.1]heptane-2-carboxylic acid (4-trifluoromethyl-phenyl)-amide] here?
**A.** 670 nM

**Q.** How did the IC50 turn out when `O=C(Nc1ccc(Oc2ccccc2)cc1)N1CCC2(CCN(Cc3ccccc3)C2)C1` (stereo not drawn) [Example 88, 7-Benzyl-2,7-diaza-spiro[4.4]nonane-2-carboxylic acid (4-phenoxy-phenyl)-amide] was run?
**A.** 390 nM

**Q.** For `O=C(Nc1ccc(Oc2ccccc2)cc1)N1CC2CN(Cc3ccccc3)CC2C1` (stereo not drawn) [Example 89, 5-Benzyl-hexahydro-pyrrolo[3,4-c]pyrrole-2-carboxylic acid (4-phenoxy-phenyl)-amide], which IC50 is on record?
**A.** 400 nM

**Q.** `CC(c1ccc(C#N)cc1)N1CC2CC1CN2C(=O)Nc1ccc(Oc2ccc(F)cc2)cc1` (stereo not drawn) [Example 90, 5-[1-(4-Cyano-phenyl)-ethyl]-2,5-diaza-bicyclo[2.2.1]heptane-2-carboxylic acid [4-(4-fluoro-phenoxy)-phenyl]-amide] was tested. Which IC50 did it give?
**A.** 1400 nM

**Q.** For `CC(c1ccc(C#N)cc1)N1CC2CC1CN2C(=O)Nc1ccc(Oc2ccc(F)cc2)cc1` (stereo not drawn) [Example 91, 5-[1-(4-Cyano-phenyl)-ethyl]-2,5-diaza-bicyclo[2.2.1]heptane-2-carboxylic acid [4-(4-fluoro-phenoxy)-phenyl]-amide], which IC50 is on record?
**A.** 1050 nM

**Q.** `O=C(Nc1ccc(Oc2ccc(F)cc2)cc1)N1CC2CC1CN2C1CCc2cc(F)ccc21` (stereo not drawn) [Example 92, 5-(5-Fluoro-indan-1-yl)-2,5-diaza-bicyclo[2.2.1]heptane-2-carboxylic acid [4-(4-fluoro-phenoxy)-phenyl]-amide] was tested. Which IC50 did it give?
**A.** 360 nM

**Q.** With `O=C(Nc1ccc(Oc2ccc(F)cc2)cc1)N1CC2CC1CN2C1CCc2cc(F)ccc21` (stereo not drawn) [Example 93, 5-(5-Fluoro-indan-1-yl)-2,5-diaza-bicyclo[2.2.1]heptane-2-carboxylic acid [4-(4-fluoro-phenoxy)-phenyl]-amide] as the compound, how does the IC50 read?
**A.** 310 nM

**Q.** Which IC50 does the source give for `O=C(Nc1ccc(C(F)(F)F)cc1)N1CC2CC1CN2C1CCc2cc(F)ccc21` (stereo not drawn) [Example 94, 5-(5-Fluoro-indan-1-yl)-2,5-diaza-bicyclo[2.2.1]heptane-2-carboxylic acid (4-trifluoromethyl-phenyl)-amide] here?
**A.** 1890 nM

**Q.** How did the IC50 turn out when `O=C(Nc1ccc(C(F)(F)F)cc1)N1CC2CC1CN2C1CCc2cc(F)ccc21` (stereo not drawn) [Example 95, 5-(5-Fluoro-indan-1-yl)-2,5-diaza-bicyclo[2.2.1]heptane-2-carboxylic acid (4-trifluoromethyl-phenyl)-amide] was run?
**A.** 1060 nM

**Q.** How did the IC50 turn out when `CC(c1ccccc1Cl)N1CC2CC1CN2C(=O)Nc1ccc(Oc2ccc(F)cc2)cc1` (stereo not drawn) [Example 96, 5-[1-(2-Chloro-phenyl)-ethyl]-2,5-diaza-bicyclo[2.2.1]heptane-2-carboxylic acid [4-(4-fluoro-phenoxy)-phenyl]-amide methanesulfonate salt] was run?
**A.** 370 nM

**Q.** Which IC50 does the source give for `O=C(Nc1ccc(Oc2ccc(F)cc2)cc1)N1CC2CC1CN2C1CCc2ccccc2C1` (stereo not drawn) [Example 97, 5-(1,2,3,4-Tetrahydro-naphthalen-2-yl)-2,5-diaza-bicyclo[2.2.1]heptane-2-carboxylic acid [4-(4-fluoro-phenoxy)-phenyl]-amide] here?
**A.** 310 nM

**Q.** How did the IC50 turn out when `O=C(Nc1ccc(Oc2ccc(F)cc2)cc1)N1CC2CN(Cc3ccccc3)CC2C1` (stereo not drawn) [Example 98, 5-Benzyl-hexahydro-pyrrolo[3,4-c]pyrrole-2-carboxylic acid [4-(4-fluoro-phenoxy)-phenyl]-amide] was run?
**A.** 170 nM

**Q.** How did the IC50 turn out when `O=C(Nc1ccc(C(F)(F)F)cc1)N1CC2CC1CN2C1Cc2ccccc2C1` (stereo not drawn) [Example 99, 5-Indan-2-yl-2,5-diaza-bicyclo[2.2.1]heptane-2-carboxylic acid (4-trifluoromethyl-phenyl)-amide] was run?
**A.** 2380 nM

**Q.** `O=C(Nc1ccc(C(F)(F)F)cc1)N1CC2CC1CN2C1CCc2cc(F)ccc2C1` (stereo not drawn) [Example 100, 5-(6-Fluoro-1,2,3,4-tetrahydro-naphthalen-2-yl)-2,5-diaza-bicyclo[2.2.1]heptane-2-carboxylic acid (4-trifluoromethyl-phenyl)-amide] was tested. Which IC50 did it give?
**A.** 640 nM

**Q.** How did the IC50 turn out when `O=C(Nc1ccc(Oc2ccc(F)cc2)cc1)N1CC2CC1CN2C1CCc2ccccc2C1` (stereo not drawn) [Example 101, 5-(1,2,3,4-Tetrahydro-naphthalen-2-yl)-2,5-diaza-bicyclo[2.2.1]heptane-2-carboxylic acid [4-(4-fluoro-phenoxy)-phenyl]-amide methanesulfonate salt] was run?
**A.** 340 nM

**Q.** Which IC50 does the source give for `O=C(Nc1ccc(Oc2ccc(F)cc2)cc1)N1CC2CC1CN2C1CCc2cc(F)ccc2C1` (stereo not drawn) [Example 102, 5-(6-Fluoro-1,2,3,4-tetrahydro-naphthalen-2-yl)-2,5-diaza-bicyclo[2.2.1]heptane-2-carboxylic acid [4-(4-fluoro-phenoxy)-phenyl]-amide] here?
**A.** 710 nM

Same assay, conditions: hNav1.8 IC50, SH-SY-5Y hNav1.8 cells; FLIPR membrane potential dye; 10 μM pyrethroid, 250 nM TTX; test concentration range 100 μM-0.05 μM

**Q.** For `Cc1ccccc1C(C)N1CC2CC1CN2C(=O)Nc1ccc(Oc2ccc(F)cc2)cc1` (stereo not drawn) [Example 87, 5-(1-o-Tolyl-ethyl)-2,5-diaza-bicyclo[2.2.1]heptane-2-carboxylic acid [4-(4-fluoro-phenoxy)-phenyl]-amide methanesulfonate salt], which IC50 is on record?
**A.** 600 nM
